Measurements from patent US8735386B2, “Aminopyrazoloquinazolines” (Boehringer Ingelheim International GmbH, priority 2010, dated 2014).

Columns and labels:
[1] = tested on: TC-71 (Ewing's sarcoma) cells; assay: cells; settings: Homo sapiens, TC-71, 72 h, read-out: EC50 on TC-71 cells
Method: Cell Proliferation Assays
Published scientific data has described that interference with the Insulin-like Growth Factor-1 Receptor (IGF-1R) signaling pathway reduces the proliferation of TC-71 cells. Therefore TC-71 cells served as a positive control cell line for monitoring the activity of compounds against IGF-1R-mediated cell proliferation.
2000 TC-71 cells or 1000 HCT 116 cells were seeded per well in 180 μL IMDM+10% foetal calf serum (FCS)+penicillin/streptomycin into 96-well microtitre plates. The plates were placed in a cell culture incubator (37° C. in a humidified atmosphere of 95% […]/5 CO2) overnight. The following day, serial dilutions of compounds, prepared in duplicates, were transferred onto the cell layers (controls without compound). The cells were cultivated for a further 72 h in the cell culture incubator. 20 μL of Alamar Bluet™ (Serotec Ltd, Düsseldorf, Germany) was added to each well and the plates incubated for 7 h in the cell culture incubator.

[2] = molecular target: cytoplasmic kinase domain of human IGF-1R (IGF-1R-GST) (Homo sapiens (Human), UniProt P08069); assay: Insulin-like growth factor-1 receptor (IGF-1R)-kinase assay (DELFIA); type: biochemical; settings: inhibition of IGF-1R-kinase activity, read-out: IGF1R IC50
cytoplasmic kinase domain of human IGF-1R (IGF-1R-GST), sequence (P08069 964-1367 limits assumed): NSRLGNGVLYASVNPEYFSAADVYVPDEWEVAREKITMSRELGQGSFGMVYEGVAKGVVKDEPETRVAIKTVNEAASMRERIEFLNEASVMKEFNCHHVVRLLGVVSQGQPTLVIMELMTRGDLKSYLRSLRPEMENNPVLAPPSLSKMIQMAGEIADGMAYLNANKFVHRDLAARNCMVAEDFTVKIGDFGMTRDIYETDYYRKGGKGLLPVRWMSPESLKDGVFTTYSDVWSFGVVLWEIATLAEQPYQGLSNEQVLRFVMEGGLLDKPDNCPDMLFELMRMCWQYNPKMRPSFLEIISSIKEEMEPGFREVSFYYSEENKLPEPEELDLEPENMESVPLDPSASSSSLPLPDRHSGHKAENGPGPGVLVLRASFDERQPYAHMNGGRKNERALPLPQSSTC
Method: Insulin-Like Growth Factor-1 Receptor (IGF-1R)-Kinase Assay
The kinase activity is measured by DELFIA® assay (dissociation-enhanced lanthanide fluorescence immunoassay, Perkin Elmer). […] Enzyme activity is measured in the presence of substances and a control substance. Poly-glutamate-tyrosine peptide (pEY, Sigma Aldrich) and biotinylated pEY (bio-pEY) are used as reaction substrates.
After 40 min at RT the reactions are stopped with 50 μL of stop solution (250 mM EDTA, 20 mM HEPES pH 7.4). 90 μL from each reaction are transferred onto streptavidin-coated 96-well plates. After 120 min incubation at RT the plates are washed three times with 200 μL phosphate-buffered saline (PBS) per well. The plates are incubated for 60 min with 100 μL of europium-coupled antibody against phospho-tyrosine (diluted 1/2000 in Perkin Elmer DELFIA assay buffer) per well. The plates are washed three times with 200 μL per well of DELFIA washing buffer. 100 μL DELFIA Enhancement Solution (Perkin Elmer) is added to each well, and the plates are incubated for 10 min. The fluorescence signal is measured with a Wallac Victor TRF Reader. IC50 values for the inhibition of the IGF-1R-kinase activity are calculated using the programmes Fifty (Version 2) and GraphPad (Version 3.0).

Row | Structure (SMILES) | EC50 [1] [nM] | IC50 [2] [nM]
1 | CC1Cc2nn(C)c(-c3ccccc3Cl)c2-c2nc(Nc3ccn(C(C)C)n3)ncc21 (racemic) [Compound I-40, 9-(2-chlorophenyl)-5,8-dimethyl-N-(1-propane-2-ylpyrazol-3-yl)-5,6-dihydropyrazolo[3,4-h]quinazolin-2-amine] | < 3000 | 
2 | CC1Cc2nn(C)c(-c3ccccc3Cl)c2-c2nc(Nc3ccn(C)n3)ncc21 (racemic) [Compound I-42, 9-(2-chlorophenyl)-5,8-dimethyl-N-(1-methylpyrazol-3-yl)-5,6-dihydropyrazolo[3,4-h]quinazolin-2-amine] | < 3000 | 
3 | COc1cc(N2CCN(C)CC2)ccc1Nc1ncc2c(n1)-c1c(nn(C)c1-c1ccccc1Cl)CC2C (racemic) [Compound I-97, 9-(2-chlorophenyl)-N-[2-methoxy-4-(4-methylpiperazin-1-yl)phenyl]-5,8-dimethyl-5,6-dihydropyrazolo[3,4-h]quinazolin-2-amine] | < 3000 | 
4 | COc1cc(C(=O)NC2CCN(C)CC2)ccc1Nc1ncc2c(n1)-c1c(nn(C)c1-c1ccccc1Cl)CC2C (racemic) [Compound I-157, 4-[[9-(2-chlorophenyl)-5,8-dimethyl-5,6-dihydropyrazolo[3,4-h]quinazolin-2-yl]amino]-3-methoxy-N-(1-methylpiperidin-4-yl)benzamide] | < 3000 | 
5 | CC1Cc2nn(C)c(Cc3ccccc3Cl)c2-c2nc(Nc3cnn(C4CCNCC4)c3)ncc21 (racemic) [IV-2a] | < 3000 | 
6 | COC(=O)c1ccc(Nc2ncc3c(n2)-c2c(nn(C)c2-c2ccccc2Cl)CC3)c(OC)c1 [Compound I-3] | < 3000 | 
7 | Cn1nccc1Nc1ncc2c(n1)-c1c(nn(C)c1-c1ccccc1Cl)CC2 [Compound I-23] | < 3000 | 
8 | CCn1ccc(Nc2ncc3c(n2)-c2c(nn(C)c2-c2ccccc2Cl)CC3)n1 [Compound I-30, 9-(2-chlorophenyl)-N-(1-ethylpyrazol-3-yl)-8-methyl-5,6-dihydropyrazolo[3,4-h]quinazolin-2-amine] | < 3000 | 
9 | Cc1cc(Nc2ncc3c(n2)-c2c(nn(C)c2-c2ccccc2Cl)CC3)nn1C [Compound I-109] | < 3000 | 
10 | COc1cc(C(=O)NC2CCN(C)CC2)ccc1Nc1ncc2c(n1)-c1c(nn(C)c1-c1ccccc1Cl)CC2 [Compound I-112, 4-[[9-(2-chlorophenyl)-8-methyl-5,6-dihydropyrazolo[3,4-h]quinazolin-2-yl]amino]-3-methoxy-N-(1-methylpiperidin-4-yl)benzamide] | < 3000 | 
11 | Cc1cccc(-c2c3c(nn2C)CCc2cnc(Nc4ccccc4)nc2-3)c1Cl [Compound I-147] | < 3000 | 
12 | COCCn1ccc(Nc2ncc3c(n2)-c2c(nn(C)c2-c2ccc(Cl)cc2)CC3)n1 [Compound I-171, 9-(4-chlorophenyl)-N-[1-(2-methoxyethyl)pyrazol-3-yl]-8-methyl-5,6-dihydropyrazolo[3,4-h]quinazolin-2-amine] | < 3000 | 
13 | CCn1ccc(Nc2ncc3c(n2)-c2c(nn(C)c2-c2sccc2C)CC3)n1 [Compound I-172] | < 3000 | 
14 | Cc1ccsc1-c1c2c(nn1C)CCc1cnc(Nc3ccn(CCN(C)C)n3)nc1-2 [Compound I-189, N-[1-(2-dimethylaminoethyl)pyrazol-3-yl]-8-methyl-9-(3-methylthiophen-2-yl)-5,6-dihydropyrazolo[3,4-h]quinazolin-2-amine] | < 3000 | 
15 | CCn1ccc(Nc2ncc3c(n2)-c2c(nn(C)c2-c2cccc(OC)c2)CC3)n1 [Compound I-293] | < 3000 | 
16 | Cc1cc(Nc2ncc3c(n2)-c2c(nn(C)c2-c2ccc(OC(F)F)cc2)CC3)nn1C [Compound I-294] | < 3000 | 
17 | COc1cc(C(=O)O)ccc1Nc1ncc2c(n1)-c1c(nn(C)c1-c1ccccc1Cl)CC2 [II-18] | < 3000 | 
18 | CCOc1cc(C(=O)NC)ccc1Nc1ncc2c(n1)-c1c(nn(C)c1-c1ccccc1)CC2 [III-3] |  | 92
19 | COc1cc(C(=O)NC2CC(N3CCN(C)CC3)C2)ccc1Nc1ncc2c(n1)-c1c(nn(C)c1-c1ccccc1Cl)CC2 (stereo not drawn) [III-38] | < 3000 | 
20 | COc1cc(C(=O)NC2CCN(C)CC2)ccc1Nc1ncc2c(n1)-c1c(nn(C)c1-c1sccc1C)CC2 [III-105] | < 3000 | 
21 | COc1cc(C(=O)NC2CCN(C)CC2)ccc1Nc1ncc2c(n1)-c1c(nn(C)c1Cc1c(Cl)cccc1Cl)CC2 [III-107] | < 3000 | 
22 | CC1Cc2nn(C)c(Cc3ccccc3Cl)c2-c2nc(Nc3cnn(C4CCN(C5CCOCC5)CC4)c3)ncc21 (stereo not drawn) [IV-9a] | < 3000 | 
23 | CC(=O)N1CCC(N2CCC(n3cc(Nc4ncc5c(n4)-c4c(nn(C)c4Cc4ccccc4Cl)CC5C)cn3)CC2)CC1 (stereo not drawn) [IV-9b] | < 3000 | 
24 | CC1Cc2nn(C)c(Cc3ccccc3Cl)c2-c2nc(Nc3cnn(C4CCN(CCO)CC4)c3)ncc21 (stereo not drawn) [IV-9c] | < 3000 | 
